Assay results: PubChem BioAssay AID720495 (Broad Institute, 2013)
Inconclusive results are not listed. The source made the active and inactive calls. No rule for the calls is given here.

target: Protein AF-9 (Homo sapiens) (UniProt P42568); assay: AF9 binding to AF4 blockers, potency – biochemical, cherry-picked samples, plate reader, dose response (AID 720495); settings: biochemical protein-protein interaction assay
Sequence (P42568 whole entry, looked up): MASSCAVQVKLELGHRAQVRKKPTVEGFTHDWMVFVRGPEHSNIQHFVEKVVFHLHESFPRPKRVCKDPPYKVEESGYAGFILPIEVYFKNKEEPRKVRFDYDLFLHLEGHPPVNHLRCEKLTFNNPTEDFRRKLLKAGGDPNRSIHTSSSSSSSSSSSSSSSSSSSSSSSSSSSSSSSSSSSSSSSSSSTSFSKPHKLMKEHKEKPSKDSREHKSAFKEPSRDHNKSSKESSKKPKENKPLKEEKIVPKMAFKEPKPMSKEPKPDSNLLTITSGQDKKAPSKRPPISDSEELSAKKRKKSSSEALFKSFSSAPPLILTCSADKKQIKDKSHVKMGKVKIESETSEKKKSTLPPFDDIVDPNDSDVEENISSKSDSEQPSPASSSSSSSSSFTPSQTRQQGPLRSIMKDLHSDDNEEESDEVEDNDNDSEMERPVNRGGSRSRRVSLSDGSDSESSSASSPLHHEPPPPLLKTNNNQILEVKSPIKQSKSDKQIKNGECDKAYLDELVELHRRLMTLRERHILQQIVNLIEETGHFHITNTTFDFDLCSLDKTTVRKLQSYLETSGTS

**Q.** `C#CCOCCOCCOCCNc1nc(N2CCN(C(=O)[C@H](CCCCN)n3cc(CCCC)nn3)CC2)nc(N2CCN(C(=O)[C@H](CCCCN)n3cc(CCCC)nn3)CC2)n1` was tested. Which AC50 did it give?
**A.** Its AC50 is 11.3 µM.

**Q.** Which AC50 does the source give for `COc1ccc2c(c1)c(=Cc1ccc(N(C)C)cc1)c1cc(-c3ccccc3)[n+](C)n12` here?
**A.** The AC50 was 2.49 µM.

**Q.** How did the AC50 turn out when `Cc1c(P(=S)(c2ccccc2)c2ccccc2)[n+]2ccccc2n1C` was run?
**A.** The AC50 was 7.98 µM.

**Q.** `CN(C)CCCNC(=O)c1ccc(-c2cc(O)c3ncccc3c2)cc1` was tested. Which AC50 did it give?
**A.** Its AC50 is 0.693 µM.

**Q.** How did the AC50 turn out when `CNC[C@H](Cc1ccccc1)NC[C@@H](Cc1cccc2ccccc12)NCCc1ccc(C)cc1` was run?
**A.** The AC50 was 10.1 µM.

**Q.** Which AC50 does the source give for `CCCC(=O)NC(c1ccc(OC)cc1)c1ccc2cccnc2c1O` (stereo not drawn) here?
**A.** The AC50 was 0.865 µM.

**Q.** `CCOC(=O)c1c(-c2ccc(-c3ccccc3)cc2)csc1NC(=O)CNCCN(C)C` was tested. Which AC50 did it give?
**A.** Its AC50 is 5.86 µM.

**Q.** Which AC50 does the source give for `CCSc1ccc(-c2cc(NC=O)c3ncc(-c4cccc(C(=O)NCCN(C)C)c4)n3c2)cc1` here?
**A.** The AC50 was 0.798 µM.

**Q.** `CCN(CC)c1ccc(CNc2nc3ccccc3n2CCN2CCCCC2)cc1` was tested. Which AC50 did it give?
**A.** The AC50 was 5.83 µM.

**Q.** `CC[C@H](C)[C@@H]1NC(=O)c2cc([N+](=O)[O-])cc(F)c2NCCCC[C@@H](C(N)=O)NC(=O)[C@H](CCCCN)NC1=O` was tested. Which AC50 did it give?
**A.** The AC50 was 9.36 µM.

**Q.** Which AC50 does the source give for `COc1cc(Nc2c3ccccc3nc3ccccc23)cc(OC)c1OC` here?
**A.** Its AC50 is 0.234 µM.

**Q.** For `Cc1cccc(NC2=C(NCCO)C(=O)c3ccccc3C2=O)c1`, which AC50 is on record?
**A.** Its AC50 is 3.55 µM.

**Q.** How did the AC50 turn out when `CCC(=O)N1CC2(CCN(Cc3ccc(Cl)cc3)CC2)c2c([nH]c3cc(OC)ccc23)[C@H]1CO` was run?
**A.** Its AC50 is 10.4 µM.

**Q.** `CN(C)c1ccc(Nc2nc(N)c3ccccc3n2)cc1` was tested. Which AC50 did it give?
**A.** Its AC50 is 7.47 µM.

**Q.** How did the AC50 turn out when `CC1C(=NO)C(C)C(c2ccc(N(C)C)cc2)NC1c1ccc(N(C)C)cc1` (stereo not drawn) was run?
**A.** The AC50 was 10.4 µM.

same assay, conditions: biochemical protein-protein interaction assay, at 10 µM (top of the series)

**Q.** `O=C(C[C@H]1CC[C@@H]2[C@H](COC[C@@H](O)CN2S(=O)(=O)c2ccc(F)cc2)O1)NCC1CCCCC1` was tested. Which “activity change, negative = inhibition” value did it give?
**A.** Its value is “inactive”.

**Q.** For `S=C(c1ccc(-c2cccc(Cl)c2)o1)N1CCOCC1`, which “activity change, negative = inhibition” value is on record?
**A.** The value was “inactive”.

**Q.** With `CCN1CCCc2cc(CN(CCN3CCOCC3)C(=S)Nc3cccc(C)c3)ccc21` as the compound, how does the “activity change, negative = inhibition” value read?
**A.** Its value is “inactive”.

**Q.** With `CCOC(=O)C1CCN(C2=C(NS(=O)(=O)c3ccc(Cl)cc3)C(=O)c3ccccc3C2=O)CC1` as the compound, how does the “activity change, negative = inhibition” value read?
**A.** Its value is “inactive”.

**Q.** For `CC1C/C(=C/c2cccs2)C(=O)/C(=C/c2cccs2)C1` (stereo not drawn), which “activity change, negative = inhibition” value is on record?
**A.** Its value is “inactive”.

**Q.** `COc1ccc(/C=N/N2CCN(c3ccccc3OC)CC2)cc1Br` was tested. Which “activity change, negative = inhibition” value did it give?
**A.** The value was “inactive”.

**Q.** `COc1ccc2sc(N(CCCN(C)C)C(=O)c3ccc(S(=O)(=O)N(C)C4CCCCC4)cc3)nc2c1` was tested. Which “activity change, negative = inhibition” value did it give?
**A.** The value was “inactive”.

**Q.** For `COc1ccc(CN2CC3(C2)CN(Cc2ccc4c(c2)OCO4)[C@H](CO)c2[nH]c4cc(OC)ccc4c23)cc1`, which “activity change, negative = inhibition” value is on record?
**A.** Its value is “inactive”.

**Q.** How did the “activity change, negative = inhibition” value turn out when `Oc1cc2c(cc1O)C1c3ccc(O)c(O)c3OCC1(O)C2` (stereo not drawn) was run?
**A.** Its value is “inactive”.

**Q.** How did the “activity change, negative = inhibition” value turn out when `CC1=NN(c2ccccc2)C(=O)/C1=C/C=C/c1ccc(N(C)C)cc1` was run?
**A.** Its value is “inactive”.

**Q.** For `C[C@H](CO)N1C[C@H](C)[C@H](CN(C)Cc2ccc(Cl)c(Cl)c2)Oc2ccc(N(C)C)cc2C1=O`, which “activity change, negative = inhibition” value is on record?
**A.** The value was “inactive”.

**Q.** How did the “activity change, negative = inhibition” value turn out when `O=C1CN=C(c2ccc(Br)cc2)c2c(sc3c2CCCC3)N1CCN1CCCCC1` was run?
**A.** The value was “inactive”.

**Q.** Which “activity change, negative = inhibition” value does the source give for `C#CCOCCOCCOCCNc1nc(N2CCN(C(=O)[C@H](CCCCN)n3cc([C@@H](N)[C@H](C)CC)nn3)CC2)nc(N2CCN(C(=O)[C@H](CCC(=O)O)n3cc([C@@H](N)CCCCN)nn3)CC2)n1` here?
**A.** Its value is “inactive”.
